The results in this text go back to ChEMBL document CHEMBL1201862, “PubChem BioAssay data set” (2004).

Molecules are shown by their SMILES. Activity calls are given as the source filed them.

The nature of assay [1]: cells. It is filed as functional, cell-based.
In assay [2] the target is T1, Trace amine-associated receptor 1 (Homo sapiens, UniProt Q96RJ0).
T1 sequence (Q96RJ0 whole entry): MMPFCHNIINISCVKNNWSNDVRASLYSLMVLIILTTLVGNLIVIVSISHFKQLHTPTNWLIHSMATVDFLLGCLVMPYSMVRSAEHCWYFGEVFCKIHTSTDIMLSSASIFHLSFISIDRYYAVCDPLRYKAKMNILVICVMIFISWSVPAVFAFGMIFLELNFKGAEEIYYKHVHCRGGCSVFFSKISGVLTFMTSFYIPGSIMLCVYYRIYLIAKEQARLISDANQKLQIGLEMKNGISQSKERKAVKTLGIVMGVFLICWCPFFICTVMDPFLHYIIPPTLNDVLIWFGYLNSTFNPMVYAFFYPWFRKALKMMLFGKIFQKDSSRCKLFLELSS
Nature of the assay: Fluorescence-based cell-based high throughput dose response assay to identify agonists of the human trace amine associated receptor 1 (TAAR1). It is filed as functional.

In assay [3] the target is T1, Trace amine-associated receptor 1. Nature of the assay: Counterscreen for agonists of the human trace amine associated receptor 1 (hTAAR1): Fluorescence-based cell-based high throughput dose response assay to identify hTAAR1 agonist that also desensitize TAAR1 receptor response. It is filed as functional. On the technique in general: The purpose of a counterscreen is to sort out artefacts and off-target activity.

Assay [4] is described as follows: cells. It is filed as functional, cell-based. The source holds these as a separate data set.
The target in assay [5] is T2, Caspase-3 (Homo sapiens, UniProt P42574).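 Note: Dose-response selectivity test against caspase-3 for candidate inhibitors of sentrin-specific proteases (SENPs).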
T2 sequence (P42574 whole entry): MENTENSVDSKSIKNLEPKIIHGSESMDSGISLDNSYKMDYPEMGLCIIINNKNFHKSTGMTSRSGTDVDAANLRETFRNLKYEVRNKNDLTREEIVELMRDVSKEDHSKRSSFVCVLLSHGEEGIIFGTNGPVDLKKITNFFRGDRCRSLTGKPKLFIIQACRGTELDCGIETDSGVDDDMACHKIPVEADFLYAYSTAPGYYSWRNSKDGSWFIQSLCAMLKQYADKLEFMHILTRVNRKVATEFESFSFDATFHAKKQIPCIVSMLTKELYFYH
It is filed as functional.

The target in assay [6] is T3, Sentrin-specific protease 7 (Homo sapiens, UniProt Q9BQF6).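 Note: Luminescence-based dose-response confirmation of ultra-high-throughput screening hits, measuring inhibition of SENP7.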
T3 sequence (Q9BQF6 whole entry): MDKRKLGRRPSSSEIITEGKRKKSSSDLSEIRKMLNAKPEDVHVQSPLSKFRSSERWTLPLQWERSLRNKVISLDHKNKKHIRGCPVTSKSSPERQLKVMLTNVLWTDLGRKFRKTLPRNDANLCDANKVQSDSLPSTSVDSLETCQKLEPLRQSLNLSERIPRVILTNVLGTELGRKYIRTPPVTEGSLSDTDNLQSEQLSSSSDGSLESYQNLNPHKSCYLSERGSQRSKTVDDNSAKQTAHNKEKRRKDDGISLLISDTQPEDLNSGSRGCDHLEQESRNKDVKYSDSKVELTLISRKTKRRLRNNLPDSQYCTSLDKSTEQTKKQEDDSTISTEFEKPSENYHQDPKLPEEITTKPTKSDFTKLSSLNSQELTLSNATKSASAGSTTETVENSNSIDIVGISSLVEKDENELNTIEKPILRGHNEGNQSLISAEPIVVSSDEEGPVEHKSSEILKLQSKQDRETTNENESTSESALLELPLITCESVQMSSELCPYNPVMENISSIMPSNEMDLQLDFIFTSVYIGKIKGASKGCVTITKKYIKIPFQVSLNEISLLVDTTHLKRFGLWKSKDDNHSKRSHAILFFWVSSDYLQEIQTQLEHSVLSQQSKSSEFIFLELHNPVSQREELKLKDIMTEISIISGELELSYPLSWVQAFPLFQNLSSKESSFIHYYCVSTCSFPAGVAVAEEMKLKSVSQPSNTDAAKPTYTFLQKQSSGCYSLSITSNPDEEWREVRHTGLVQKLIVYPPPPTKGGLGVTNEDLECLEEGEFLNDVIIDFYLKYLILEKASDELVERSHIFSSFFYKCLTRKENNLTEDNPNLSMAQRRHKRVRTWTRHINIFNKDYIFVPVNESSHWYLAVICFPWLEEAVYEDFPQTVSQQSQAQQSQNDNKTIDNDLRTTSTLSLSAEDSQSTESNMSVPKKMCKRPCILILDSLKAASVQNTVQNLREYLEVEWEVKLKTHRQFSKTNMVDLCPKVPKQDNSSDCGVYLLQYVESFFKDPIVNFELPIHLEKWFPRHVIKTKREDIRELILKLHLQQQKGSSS
It is filed as functional.

Assay [7] addresses T4, Sentrin-specific protease 6 (Homo sapiens, UniProt Q9GZR1).
T4 sequence (Q9GZR1 whole entry): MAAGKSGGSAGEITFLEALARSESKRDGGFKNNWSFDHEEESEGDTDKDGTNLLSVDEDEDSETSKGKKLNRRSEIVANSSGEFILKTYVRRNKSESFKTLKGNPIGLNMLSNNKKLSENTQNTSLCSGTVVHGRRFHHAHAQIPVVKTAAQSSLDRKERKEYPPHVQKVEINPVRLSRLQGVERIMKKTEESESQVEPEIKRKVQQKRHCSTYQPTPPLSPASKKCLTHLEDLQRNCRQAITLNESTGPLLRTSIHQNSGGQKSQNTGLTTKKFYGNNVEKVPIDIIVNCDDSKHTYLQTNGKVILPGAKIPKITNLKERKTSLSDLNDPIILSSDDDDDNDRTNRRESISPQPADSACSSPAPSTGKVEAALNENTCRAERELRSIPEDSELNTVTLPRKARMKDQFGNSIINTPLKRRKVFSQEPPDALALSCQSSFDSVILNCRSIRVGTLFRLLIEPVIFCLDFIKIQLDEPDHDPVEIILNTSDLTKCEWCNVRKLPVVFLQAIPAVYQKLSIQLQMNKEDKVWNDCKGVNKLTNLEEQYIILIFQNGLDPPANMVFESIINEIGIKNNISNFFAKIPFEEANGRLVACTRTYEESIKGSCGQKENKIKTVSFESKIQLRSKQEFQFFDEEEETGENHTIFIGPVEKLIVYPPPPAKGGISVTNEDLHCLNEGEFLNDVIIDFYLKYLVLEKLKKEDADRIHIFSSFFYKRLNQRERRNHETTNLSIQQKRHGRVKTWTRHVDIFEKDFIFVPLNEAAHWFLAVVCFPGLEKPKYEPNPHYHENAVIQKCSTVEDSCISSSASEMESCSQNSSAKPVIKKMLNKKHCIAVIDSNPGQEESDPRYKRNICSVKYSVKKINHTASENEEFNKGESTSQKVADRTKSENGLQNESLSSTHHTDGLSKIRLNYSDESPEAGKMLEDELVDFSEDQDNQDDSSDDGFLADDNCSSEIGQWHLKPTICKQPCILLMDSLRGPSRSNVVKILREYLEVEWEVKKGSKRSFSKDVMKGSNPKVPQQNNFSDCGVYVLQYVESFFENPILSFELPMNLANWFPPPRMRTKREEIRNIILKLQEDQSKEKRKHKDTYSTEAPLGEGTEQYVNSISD
The format is functional.

In assay [8] the target is T5, Sentrin-specific protease 8 (Homo sapiens, UniProt Q96LD8).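 Note: luminescence read-out of SENP8 inhibition, dose-response confirmation following an ultra-high-throughput screen.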
T5 sequence (Q96LD8 whole entry): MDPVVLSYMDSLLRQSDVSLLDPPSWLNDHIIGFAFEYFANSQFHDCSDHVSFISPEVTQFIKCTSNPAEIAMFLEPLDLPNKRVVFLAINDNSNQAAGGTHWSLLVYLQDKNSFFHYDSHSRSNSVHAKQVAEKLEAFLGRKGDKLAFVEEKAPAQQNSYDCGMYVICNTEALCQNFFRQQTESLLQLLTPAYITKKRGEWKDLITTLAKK
It is filed as functional.

The target of assay [9] is SWI/SNF-related matrix-associated actin-dependent regulator of chromatin subfamily A member 2 (Homo sapiens, UniProt P51531). Put plainly: Luminescence-based cell-based high throughput dose response assay to identify activators of the function of SWI/SNF related, matrix associated, actin dependent regulator of chromatin, subfamily a, member 2 (SMARCA2, BRM). It is filed as functional.

The nature of assay [10]: Counterscreen for activators of the function of SWI/SNF related, matrix associated, actin dependent regulator of chromatin, subfamily a, member 2 (SMARCA2, BRM): Luminescence-based cell-based high throughput dose response assay to identify non-selective compounds using the VP16 reporter assay. The format is functional.
The target in assay [11] is Histone-lysine N-methyltransferase NSD2 (Homo sapiens, UniProt O96028). The format is biochemical.
Assay [12] concerns Streptococcus sp. 'group A'. Put plainly: Streptococcus pyogenes SK(-)GAS viability under kanamycin – luminescence, BacTiterGlo, confirmation, counter-screen for streptokinase expression inhibitor project, dose response (AID 1900). The format is functional, organism-based.
For assay [13], the target named is T6, Streptokinase A (Streptococcus pyogenes serotype M1, UniProt P10520).
T6 sequence (P10520 whole entry): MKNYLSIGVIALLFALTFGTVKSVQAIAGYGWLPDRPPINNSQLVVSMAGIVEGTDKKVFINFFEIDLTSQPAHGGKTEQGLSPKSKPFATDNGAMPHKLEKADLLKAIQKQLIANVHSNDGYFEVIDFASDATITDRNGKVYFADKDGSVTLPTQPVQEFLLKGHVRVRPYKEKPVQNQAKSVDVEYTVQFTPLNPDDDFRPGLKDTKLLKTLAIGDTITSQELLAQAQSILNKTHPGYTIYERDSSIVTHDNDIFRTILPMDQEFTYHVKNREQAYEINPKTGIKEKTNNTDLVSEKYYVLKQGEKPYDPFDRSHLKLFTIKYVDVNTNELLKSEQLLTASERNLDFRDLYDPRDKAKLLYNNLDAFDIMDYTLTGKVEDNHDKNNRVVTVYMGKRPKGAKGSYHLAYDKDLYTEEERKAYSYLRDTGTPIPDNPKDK
Nature of the assay: viability-normalized secreted streptokinase activity reduction – plasminogen activation absorbance, OD405, dose response (AID 1914).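 Note: secreted streptokinase activity via plasminogen activation per viability signal from cell pellet.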 It is filed as functional, Streptococcus pyogenes M1 GAS.

Assay [14] concerns Streptococcus. Nature of the assay: GAS UMAA2166 growth inhibition – luminescence, BacTiterGlo, counter-screen for streptokinase expression inhibitor project, dose response (AID 1915).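 Note: potency for reduction of bacterial viability or growth.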 The format is functional, organism-based.
The nature of assay [15]: toxicity toward HepG2 liver cells – cell-based, plate reader, cherry-pick, antagonist series, cytotoxicity control, dose response (AID 743416). The format is functional.
Assay [16] is described as follows: blockers of bursicon-stimulated LGR2 cAMP reporter – cell-based, HEK293, CRE-luciferase reporter, cherry pick, set 2, dose response (AID 743343).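 Note: transfected cells were stimulated with diluted bursicon conditioned medium after compound addition.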 It is filed as functional. On the technique in general: Reporter assays use an easily measured gene product as a stand-in for the process of interest.
The nature of assay [17]: blockade of melanocortin 4 receptor signaling – cell-based, plate reader, cherry pick, counter-screen for LGR2 antagonist project, dose response (AID 743444).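 Note: transfected HEK 293 cells stimulated with alpha-MSH peptide; potency of inhibitors of the alpha-MSH evoked signal.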 The format is functional.
Assay [18] in a line: viability loss in HEK293 cells – cell-based, plate reader, cherry-picked samples, cytotoxicity control, dose response (AID 743446). It is filed as functional.
The target in assay [19] is Galanin receptor type 3 (Homo sapiens, UniProt O60755). Nature of the assay: Fluorescence-based cell-based primary high throughput dose response assay to identify antagonists of the Galanin Receptor 3 (GalR3). It is filed as functional.
Assay [20] can be described thus: cells. The format is functional, cell-based. Conditions: HEK-CNG.

Galanin receptor type 3, sequence (O60755 whole entry): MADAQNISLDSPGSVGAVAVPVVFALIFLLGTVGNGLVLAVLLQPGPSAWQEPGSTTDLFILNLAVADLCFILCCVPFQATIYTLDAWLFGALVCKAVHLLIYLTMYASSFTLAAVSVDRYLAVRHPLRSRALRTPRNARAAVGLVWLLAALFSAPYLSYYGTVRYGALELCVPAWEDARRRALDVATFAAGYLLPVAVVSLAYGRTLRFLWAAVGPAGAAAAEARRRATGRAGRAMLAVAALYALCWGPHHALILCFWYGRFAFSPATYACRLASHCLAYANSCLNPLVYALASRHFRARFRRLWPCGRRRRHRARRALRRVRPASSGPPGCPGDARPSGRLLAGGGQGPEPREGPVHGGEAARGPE
Histone-lysine N-methyltransferase NSD2, sequence (O96028 whole entry): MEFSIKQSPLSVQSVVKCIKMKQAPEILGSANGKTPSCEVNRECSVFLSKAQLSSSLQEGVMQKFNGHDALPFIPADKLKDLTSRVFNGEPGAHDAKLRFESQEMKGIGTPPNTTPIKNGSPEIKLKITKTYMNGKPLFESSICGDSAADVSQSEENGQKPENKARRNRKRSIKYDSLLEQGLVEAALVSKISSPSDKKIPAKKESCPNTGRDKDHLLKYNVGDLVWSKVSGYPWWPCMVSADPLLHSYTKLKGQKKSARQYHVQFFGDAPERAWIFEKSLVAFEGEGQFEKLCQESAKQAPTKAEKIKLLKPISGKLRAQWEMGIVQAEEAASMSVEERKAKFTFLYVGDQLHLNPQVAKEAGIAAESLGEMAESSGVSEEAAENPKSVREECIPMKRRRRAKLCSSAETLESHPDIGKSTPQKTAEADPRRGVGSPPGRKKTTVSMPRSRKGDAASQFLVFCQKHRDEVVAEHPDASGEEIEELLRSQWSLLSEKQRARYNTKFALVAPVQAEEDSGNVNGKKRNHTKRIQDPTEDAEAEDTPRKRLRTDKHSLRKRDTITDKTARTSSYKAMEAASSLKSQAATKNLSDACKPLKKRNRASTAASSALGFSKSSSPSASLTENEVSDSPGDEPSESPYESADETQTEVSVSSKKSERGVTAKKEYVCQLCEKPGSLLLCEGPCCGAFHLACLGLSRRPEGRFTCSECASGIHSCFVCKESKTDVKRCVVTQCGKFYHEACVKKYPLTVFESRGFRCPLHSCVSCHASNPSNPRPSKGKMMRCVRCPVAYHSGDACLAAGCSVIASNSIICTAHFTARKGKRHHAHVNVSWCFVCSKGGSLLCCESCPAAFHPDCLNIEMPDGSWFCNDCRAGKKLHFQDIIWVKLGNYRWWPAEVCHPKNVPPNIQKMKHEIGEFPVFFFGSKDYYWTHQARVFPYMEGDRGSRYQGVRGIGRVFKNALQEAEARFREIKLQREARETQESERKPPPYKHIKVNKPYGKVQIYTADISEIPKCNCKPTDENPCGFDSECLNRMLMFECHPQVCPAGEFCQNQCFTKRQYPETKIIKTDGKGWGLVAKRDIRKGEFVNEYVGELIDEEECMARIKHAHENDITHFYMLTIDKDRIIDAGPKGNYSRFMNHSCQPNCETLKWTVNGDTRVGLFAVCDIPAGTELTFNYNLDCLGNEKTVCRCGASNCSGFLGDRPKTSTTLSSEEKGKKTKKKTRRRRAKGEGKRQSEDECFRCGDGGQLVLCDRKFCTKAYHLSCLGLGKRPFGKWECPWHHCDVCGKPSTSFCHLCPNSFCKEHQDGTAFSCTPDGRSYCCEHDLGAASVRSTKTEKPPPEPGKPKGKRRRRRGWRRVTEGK
SWI/SNF-related matrix-associated actin-dependent regulator of chromatin subfamily A member 2, sequence (P51531 whole entry): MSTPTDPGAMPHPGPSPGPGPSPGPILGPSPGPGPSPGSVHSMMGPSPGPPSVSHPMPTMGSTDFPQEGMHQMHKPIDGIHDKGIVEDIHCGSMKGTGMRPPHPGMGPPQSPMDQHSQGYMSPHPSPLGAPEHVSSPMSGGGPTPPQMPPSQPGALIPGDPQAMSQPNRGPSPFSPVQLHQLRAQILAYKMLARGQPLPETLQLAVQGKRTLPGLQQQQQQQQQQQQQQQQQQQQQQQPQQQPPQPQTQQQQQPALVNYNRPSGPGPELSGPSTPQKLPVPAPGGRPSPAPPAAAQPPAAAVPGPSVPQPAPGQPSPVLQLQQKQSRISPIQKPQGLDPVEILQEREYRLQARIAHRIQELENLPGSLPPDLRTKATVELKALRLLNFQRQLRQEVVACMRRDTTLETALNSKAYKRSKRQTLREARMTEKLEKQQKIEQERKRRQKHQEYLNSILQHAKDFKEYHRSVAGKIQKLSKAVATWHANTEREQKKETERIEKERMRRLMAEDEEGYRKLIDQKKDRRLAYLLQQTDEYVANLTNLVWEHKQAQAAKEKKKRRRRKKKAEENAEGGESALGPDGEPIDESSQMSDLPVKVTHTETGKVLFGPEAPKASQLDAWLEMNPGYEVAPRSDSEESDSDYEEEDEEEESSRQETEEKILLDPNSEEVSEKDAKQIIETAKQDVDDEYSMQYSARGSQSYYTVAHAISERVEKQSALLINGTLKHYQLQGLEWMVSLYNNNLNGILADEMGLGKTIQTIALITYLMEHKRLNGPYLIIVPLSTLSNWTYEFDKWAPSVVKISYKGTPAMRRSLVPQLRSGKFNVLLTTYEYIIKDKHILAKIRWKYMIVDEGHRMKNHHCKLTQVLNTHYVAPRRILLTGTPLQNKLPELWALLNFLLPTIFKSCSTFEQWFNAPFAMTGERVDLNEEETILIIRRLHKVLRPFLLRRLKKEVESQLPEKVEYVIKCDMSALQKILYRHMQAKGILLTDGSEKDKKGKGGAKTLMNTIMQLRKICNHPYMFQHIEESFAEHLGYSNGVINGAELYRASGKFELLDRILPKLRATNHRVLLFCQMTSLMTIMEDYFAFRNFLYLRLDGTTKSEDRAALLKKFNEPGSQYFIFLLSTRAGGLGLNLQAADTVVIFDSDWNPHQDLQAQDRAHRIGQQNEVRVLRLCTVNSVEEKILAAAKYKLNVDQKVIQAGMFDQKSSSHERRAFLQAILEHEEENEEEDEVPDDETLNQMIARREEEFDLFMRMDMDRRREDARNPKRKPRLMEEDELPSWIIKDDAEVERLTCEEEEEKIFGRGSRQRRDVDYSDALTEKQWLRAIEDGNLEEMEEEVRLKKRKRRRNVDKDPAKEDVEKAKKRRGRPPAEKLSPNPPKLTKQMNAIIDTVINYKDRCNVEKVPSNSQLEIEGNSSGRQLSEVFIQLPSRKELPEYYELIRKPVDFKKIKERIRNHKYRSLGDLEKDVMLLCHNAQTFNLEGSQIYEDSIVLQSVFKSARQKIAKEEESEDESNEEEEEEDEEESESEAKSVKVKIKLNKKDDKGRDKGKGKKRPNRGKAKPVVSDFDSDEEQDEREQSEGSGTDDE

Consider `CC(Cc1ccccc1)NC=O` (centres undefined) [FORMETOREX], for which the values for the IC50 in [1] and in [3] were > 29.9 µM (inactive) and 2.27 µM (active), respectively. In addition, the EC50 is 0.576 µM (active) in assay [2] and > 29.9 µM (inactive) in [4].
With `Fc1cccc(F)c1-c1nc(-c2ccc(Cl)cc2)no1`, the IC50 in [5] was 25.2 µM (active); in assay [6], 3.99 µM (active); in [7] it was 5.78 µM (active); in assay [8] it was 21.8 µM (active). In addition, the EC50 in [9] and in assay [10] was > 91.2 µM (inactive) each time.
As for `CCCN(CCC)CCCNC(=O)c1ccc(CS(=O)(=O)c2c(Cl)cccc2Cl)o1`, in [11], the AC50 was > 20 µM (inactive).
Regarding `CCN(CCn1cccn1)C(=O)CC1C(=O)NCCN1CCc1ccccc1` (centres undefined), the half-maximal effective concentration (EC50) in assay [12] is > 150 µM (not active); in assay [13], > 150 µM (not active); in assay [14], > 150 µM (not active); in [2] it was 1.31 µM (active); in [4] it was > 29.9 µM (inactive). For the same compound, the values for the IC50 in assay [1] and in assay [3] were > 29.9 µM (inactive) and 2.2 µM (active), respectively.
As for `O=C(Nc1nc2ccccc2s1)c1ccc2sc([C@H]3C[C@H](O)[C@@H](CO)O3)nc2c1`, the AC50 was > 52 µM (inactive) in assay [15], 18.2 µM (active) in assay [16], 18.5 µM (active) in assay [17] and > 52 µM (inactive) in [18].
Consider `Clc1cccc(CN2CCN(c3ncc(Cc4ccccc4)cn3)CC2)c1Cl`, for which the half-maximal inhibitory concentration (IC50) in assay [19] is > 0.369 µM (active). For the same compound, the EC50 in [20] was > 29.9 µM (inactive).

As usually defined, the IC50 is the concentration that gives 50% inhibition. What is called EC50 is the midpoint of the concentration-response curve. Usually AC50 stands for the concentration at which the activity in the assay is half-maximal.
